# Source: patent US20090068290A1, “BIFEPRUNOX DOSES FOR TREATING SCHIZOPHRENIA” (priority 2006, published 2009)
# What was measured:
# Assay type in all cases: in vivo, human
# [1] = tested on: adult subjects with schizophrenia; assay: CGI Severity of Illness score, Clinical Study Two; conditions: for Change from Baseline in CGI Severity of Illness Score, Mean (SD) / Change from Baseline in CGI Severity of Illness Score, Median / Change from Baseline in CGI Severity of Illness Score, Trt Effect (bifeprunox—placebo) / mean change (SD) from Baseline to Endpoint in CGI severity of illness score: LOCF; for Change from Baseline in CGI Severity of Illness Score, Mean (SD) / Change from Baseline in CGI Severity of Illness Score, Median / Change from Baseline in CGI Severity of Illness Score, Trt Effect (bifeprunox—placebo): ITT population; for CGI severity of illness score, treatment effect (bifeprunox—placebo): Endpoint LOCF; for mean change (SD) from Baseline to Endpoint in CGI severity of illness score: ITT
# Description: Rating scale assessments were performed weekly, except for week 5, to measure the change from baseline to endpoint of the PANSS total score. Other assessments included: PANSS positive symptom subscale score, PANSS negative symptom subscale score, PANSS general pschopathology subscale score, BPRS total score, BPRS psychosis score, the CGI-S score, the CGI-I score, responder rates based on the PANSS total score, and the Calgary Depression Scale for Schizophrenia (CDSS). […]
# Subjects who completed this study had the option to continue in the long-term. […] Risperidone-treated subjects were titrated from 2 mg to 6 mg daily over a three-day period and were subsequently maintained at 6 mg/day for the remainder of the treatment period. […] Blood samples were also obtained at Screening/Baseline, Week 3, and Week 6 for clinical laboratory assessments.
# [2] = Body weight, Clinical Study Two
# [3] = tested on: adult subjects with schizophrenia; assay: BPRS psychosis cluster score, Clinical Study Three; conditions: for Change from Baseline in BPRS Psychosis Cluster Score, Mean (SD) / Change from Baseline in BPRS Psychosis Cluster Score, Median / Change from Baseline in BPRS Psychosis Cluster Score, Trt Effect (bifeprunox—placebo) / mean change (SD) from Baseline to Endpoint in BPRS psychosis cluster score: LOCF; for Change from Baseline in BPRS Psychosis Cluster Score, Mean (SD) / Change from Baseline in BPRS Psychosis Cluster Score, Median / Change from Baseline in BPRS Psychosis Cluster Score, Trt Effect (bifeprunox—placebo): ITT population; for BPRS psychosis cluster score, treatment effect (bifeprunox—placebo): Endpoint LOCF; for mean change (SD) from Baseline to Endpoint in BPRS psychosis cluster score: ITT
# Description: SECONDARY OBJECTIVES To assess the efficacy of bifeprunox in treating schizophrenia using the Positive Symptom sub-scale score of the PANSS, the Negative Symptom sub-scale score of the PANSS, the General Psychopathology sub-scale of the PANSS, Brief Psychiatric Rating Scale (BPRS) total score derived from the PANSS, BPRS psychosis score derived from the PANSS, the Clinical Global Impression Severity of Illness score (CGI-S), the Clinical Global Impression Improvement score (CGI-I), CGI-I responder rate, PANSS responder rate based on the PANSS total score, Calgary Depression Scale for Schizophrenia (CDSS), and Subject Satisfaction rating.
# There were four treatment arms in this study, approximately 144 subjects per arm. […] After completing the Single-Blind Placebo Lead-in Period of at least three days, bifeprunox-treated subjects were titrated from 0.25 mg up to 20 mg/day or 30 mg/day according to a standardized titration scheme over a seven- or eight-day period, respectively. When the assigned dose was reached, subjects were maintained at that dose for the remainder of the six week treatment period. […] Subjects were hospitalized (if not already inpatients) after eligibility for study entry was verified, starting from the Screening Visit until at least 10 days after Baseline. Subjects could be hospitalized longer than 10 days if considered medically necessary by the Investigator. Rating scale assessments for efficacy and abnormal movement disorders were done weekly except for Week 5. […] Subject satisfaction with study medication was assessed at Week 6.
# [4] = Bifeprunox 30 mg, Week 6/Endpoint
# [5] = Bifeprunox 40 mg, Week 6/Endpoint
# [6] = Bifeprunox 20 mg, Week 6/Endpoint
smiles,measurement,setting,value
"O=c1[nH]c2cccc(N3CCN(Cc4cccc(-c5ccccc5)c4)CC3)c2o1 [Bifeprunox, 7-[4-([1,1′-biphenyl]-3-ylmethyl)-1-piperazinyl]-2(3H)-benzoxazolone]","Change from Baseline in CGI Severity of Illness Score, Mean (SD)",[1]; [4],−0.69 (1.19)
same,"Change from Baseline in CGI Severity of Illness Score, Median",[1]; [4],0.0
same,"Change from Baseline in CGI Severity of Illness Score, Trt Effect (bifeprunox—placebo)",[1]; [4],−0.28
same,"Change from Baseline in CGI Severity of Illness Score, Mean (SD)","[1]; Bifeprunox 40 mg, Week 1",−0.28 (0.65)
same,"Change from Baseline in CGI Severity of Illness Score, Median","[1]; Bifeprunox 40 mg, Week 1",0.0
same,"Change from Baseline in CGI Severity of Illness Score, Mean (SD)","[1]; Bifeprunox 40 mg, Week 2",−0.43 (0.90)
same,"Change from Baseline in CGI Severity of Illness Score, Median","[1]; Bifeprunox 40 mg, Week 2",0.0
same,"Change from Baseline in CGI Severity of Illness Score, Mean (SD)","[1]; Bifeprunox 40 mg, Week 3",−0.54 (1.02)
same,"Change from Baseline in CGI Severity of Illness Score, Median","[1]; Bifeprunox 40 mg, Week 3",0.0
same,"Change from Baseline in CGI Severity of Illness Score, Mean (SD)","[1]; Bifeprunox 40 mg, Week 4",−0.51 (1.08)
same,"Change from Baseline in CGI Severity of Illness Score, Median","[1]; Bifeprunox 40 mg, Week 4",0.0
same,"Change from Baseline in CGI Severity of Illness Score, Mean (SD)",[1]; [5],−0.54 (1.12)
same,"Change from Baseline in CGI Severity of Illness Score, Median",[1]; [5],0.0
same,"Change from Baseline in CGI Severity of Illness Score, Trt Effect (bifeprunox—placebo)",[1]; [5],−0.18
same,"CGI severity of illness score, treatment effect (bifeprunox—placebo)",[1]; bifeprunox 30 mg,−0.28
same,mean change (SD) from Baseline to Endpoint in CGI severity of illness score,[1]; bifeprunox 30 mg,−0.69 (1.19)
same,"CGI severity of illness score, treatment effect (bifeprunox—placebo)",[1]; bifeprunox 40 mg,−0.18
same,mean change (SD) from Baseline to Endpoint in CGI severity of illness score,[1]; bifeprunox 40 mg,−0.54 (1.12)
same,"Weight, Baseline Mean of subjects with Endpoint change",[2]; Bifeprunox 30 mg,168.1 lbs
same,"Weight, Baseline Mean of subjects with Week 6 change",[2]; Bifeprunox 30 mg,166.1 lbs
same,"Weight, Baseline, Max",[2]; Bifeprunox 30 mg,360 lbs
same,"Weight, Baseline, Mean (SD)",[2]; Bifeprunox 30 mg,169.2 (55.3) lbs
same,"Weight, Baseline, Median",[2]; Bifeprunox 30 mg,161 lbs
same,"Weight, Baseline, Min",[2]; Bifeprunox 30 mg,84 lbs
same,"Weight, Change from Baseline at Endpoint, Max",[2]; Bifeprunox 30 mg,9 lbs
same,"Weight, Change from Baseline at Endpoint, Mean (SD)",[2]; Bifeprunox 30 mg,−2.2 (6.7) lbs
same,"Weight, Change from Baseline at Endpoint, Median",[2]; Bifeprunox 30 mg,0 lbs
same,"Weight, Change from Baseline at Endpoint, Min",[2]; Bifeprunox 30 mg,−32 lbs
same,"Weight, Change from Baseline at Week 6, Max",[2]; Bifeprunox 30 mg,8 lbs
same,"Weight, Change from Baseline at Week 6, Mean (SD)",[2]; Bifeprunox 30 mg,−4.3 (8.2) lbs
same,"Weight, Change from Baseline at Week 6, Median",[2]; Bifeprunox 30 mg,−2 lbs
same,"Weight, Change from Baseline at Week 6, Min",[2]; Bifeprunox 30 mg,−32 lbs
same,mean weight change at Endpoint,[2]; Bifeprunox 30 mg,−2.2 lbs
same,"Weight, Baseline Mean of subjects with Endpoint change",[2]; Bifeprunox 40 mg,160.7 lbs
same,"Weight, Baseline Mean of subjects with Week 6 change",[2]; Bifeprunox 40 mg,162.0 lbs
same,"Weight, Baseline, Max",[2]; Bifeprunox 40 mg,378 lbs
same,"Weight, Baseline, Mean (SD)",[2]; Bifeprunox 40 mg,161.9 (46.6) lbs
same,"Weight, Baseline, Median",[2]; Bifeprunox 40 mg,155 lbs
same,"Weight, Baseline, Min",[2]; Bifeprunox 40 mg,84 lbs
same,"Weight, Change from Baseline at Endpoint, Max",[2]; Bifeprunox 40 mg,15 lbs
same,"Weight, Change from Baseline at Endpoint, Mean (SD)",[2]; Bifeprunox 40 mg,−1.9 (5.8) lbs
same,"Weight, Change from Baseline at Endpoint, Median",[2]; Bifeprunox 40 mg,−1 lbs
same,"Weight, Change from Baseline at Endpoint, Min",[2]; Bifeprunox 40 mg,−18 lbs
same,"Weight, Change from Baseline at Week 6, Max",[2]; Bifeprunox 40 mg,10 lbs
same,"Weight, Change from Baseline at Week 6, Mean (SD)",[2]; Bifeprunox 40 mg,−3.1 (5.8) lbs
same,"Weight, Change from Baseline at Week 6, Median",[2]; Bifeprunox 40 mg,−2 lbs
same,body weight (in words),"[2]; bifeprunox 30, 40 mg, 6 weeks",Small comparable decreases in body weight
same,"Change from Baseline in BPRS Psychosis Cluster Score, Mean (SD)","[3]; Bifeprunox 20 mg, Week 1",−1.4 (2.3)
same,"Change from Baseline in BPRS Psychosis Cluster Score, Median","[3]; Bifeprunox 20 mg, Week 1",−1
same,"Change from Baseline in BPRS Psychosis Cluster Score, Mean (SD)","[3]; Bifeprunox 20 mg, Week 2",−2.1 (2.9)
same,"Change from Baseline in BPRS Psychosis Cluster Score, Median","[3]; Bifeprunox 20 mg, Week 2",−2
same,"Change from Baseline in BPRS Psychosis Cluster Score, Mean (SD)","[3]; Bifeprunox 20 mg, Week 3",−2.6 (3.4)
same,"Change from Baseline in BPRS Psychosis Cluster Score, Median","[3]; Bifeprunox 20 mg, Week 3",−3
same,"Change from Baseline in BPRS Psychosis Cluster Score, Median","[3]; Bifeprunox 20 mg, Week 4",−3
same,"Change from Baseline in BPRS Psychosis Cluster Score, Mean (SD)",[3]; [6],−3.1 (3.9)
same,"Change from Baseline in BPRS Psychosis Cluster Score, Median",[3]; [6],−3
same,"Change from Baseline in BPRS Psychosis Cluster Score, Trt Effect (bifeprunox—placebo)",[3]; [6],−0.6
same,"Change from Baseline in BPRS Psychosis Cluster Score, Mean (SD)","[3]; Bifeprunox 30 mg, Week 1",−1.7 (2.5)
same,"Change from Baseline in BPRS Psychosis Cluster Score, Median","[3]; Bifeprunox 30 mg, Week 1",−2
same,"Change from Baseline in BPRS Psychosis Cluster Score, Mean (SD)","[3]; Bifeprunox 30 mg, Week 2",−2.3 (3.3)
same,"Change from Baseline in BPRS Psychosis Cluster Score, Median","[3]; Bifeprunox 30 mg, Week 2",−2
same,"Change from Baseline in BPRS Psychosis Cluster Score, Mean (SD)","[3]; Bifeprunox 30 mg, Week 3",−2.7 (3.8)
same,"Change from Baseline in BPRS Psychosis Cluster Score, Median","[3]; Bifeprunox 30 mg, Week 3",−3
same,"Change from Baseline in BPRS Psychosis Cluster Score, Mean (SD)","[3]; Bifeprunox 30 mg, Week 4",−3.0 (4.0)
same,"Change from Baseline in BPRS Psychosis Cluster Score, Median","[3]; Bifeprunox 30 mg, Week 4",−3
same,"Change from Baseline in BPRS Psychosis Cluster Score, Mean (SD)",[3]; [4],−3.2 (4.4)
same,"Change from Baseline in BPRS Psychosis Cluster Score, Median",[3]; [4],−3
same,"Change from Baseline in BPRS Psychosis Cluster Score, Trt Effect (bifeprunox—placebo)",[3]; [4],−0.5
same,"BPRS psychosis cluster score, treatment effect (bifeprunox—placebo)",[3]; bifeprunox 20 mg,−0.6
same,mean change (SD) from Baseline to Endpoint in BPRS psychosis cluster score,[3]; bifeprunox 20 mg,−3.1 (3-9)
same,"BPRS psychosis cluster score, treatment effect (bifeprunox—placebo)",[3]; bifeprunox 30 mg,−0.5
same,mean change (SD) from Baseline to Endpoint in BPRS psychosis cluster score,[3]; bifeprunox 30 mg,−3.2 (4.4)
